Columns and labels:
Adenosine receptor A3 [1] = target: T1, Adenosine receptor A3 (Mus musculus, UniProt Q61618); assay: Binding affinity to mouse adenosine A3 receptor measured by radioligand binding assay
T1 sequence (Q61618 whole entry): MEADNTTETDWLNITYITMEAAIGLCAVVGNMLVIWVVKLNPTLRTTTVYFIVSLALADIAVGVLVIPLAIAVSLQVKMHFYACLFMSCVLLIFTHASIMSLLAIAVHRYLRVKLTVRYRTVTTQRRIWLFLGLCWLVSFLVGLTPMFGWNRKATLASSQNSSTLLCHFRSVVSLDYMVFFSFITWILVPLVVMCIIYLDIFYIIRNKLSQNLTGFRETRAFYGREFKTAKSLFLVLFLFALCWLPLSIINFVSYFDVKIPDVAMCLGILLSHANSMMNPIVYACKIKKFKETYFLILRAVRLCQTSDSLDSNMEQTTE

Adenosine receptor A3 [2] = target: T2, Adenosine receptor A3 (Rattus norvegicus, UniProt P28647); assay: Binding affinity to rat adenosine A3 receptor measured by radioligand binding assay
T2 sequence (P28647 whole entry): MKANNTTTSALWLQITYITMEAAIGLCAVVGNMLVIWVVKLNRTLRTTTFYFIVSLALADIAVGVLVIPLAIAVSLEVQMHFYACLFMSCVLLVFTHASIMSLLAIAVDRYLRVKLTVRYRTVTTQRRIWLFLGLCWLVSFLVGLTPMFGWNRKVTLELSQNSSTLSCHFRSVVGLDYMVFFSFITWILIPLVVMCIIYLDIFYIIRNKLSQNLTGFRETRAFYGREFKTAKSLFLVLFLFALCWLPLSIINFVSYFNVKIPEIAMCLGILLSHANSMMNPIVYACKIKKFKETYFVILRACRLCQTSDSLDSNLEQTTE

[3] = target: T3, Adenosine receptor A1 (Homo sapiens) (UniProt P30542); assay: Displacement of [3H] DPCPX from human adenosine A1 receptor expressed in HEK293 cells at 10 uM incubated for 60 mins by radioligand binding assay; format: cell-based
T3 sequence (whole entry): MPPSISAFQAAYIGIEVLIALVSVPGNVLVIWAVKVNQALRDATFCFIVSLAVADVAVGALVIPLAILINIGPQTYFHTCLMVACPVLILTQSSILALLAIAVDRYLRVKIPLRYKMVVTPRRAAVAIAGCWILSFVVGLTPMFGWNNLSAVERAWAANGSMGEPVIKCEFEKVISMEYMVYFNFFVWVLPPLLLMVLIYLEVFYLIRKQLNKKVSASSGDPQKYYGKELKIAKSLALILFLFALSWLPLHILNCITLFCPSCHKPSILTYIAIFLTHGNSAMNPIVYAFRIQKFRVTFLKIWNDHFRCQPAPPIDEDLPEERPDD

Adenosine receptor A2a [4] = target: T4, Adenosine receptor A2a (Homo sapiens, UniProt P29274); assay: Displacement of [3H] ZM241385 from human adenosine A2A receptor expressed in HEK293 cells incubated for 60 mins by radioligand binding assay; format: cell-based
Adenosine receptor A3 [5] = target: T5, Adenosine receptor A3 (Homo sapiens, UniProt P0DMS8); format: cell-based, HEK293
T5 sequence (P0DMS8 whole entry): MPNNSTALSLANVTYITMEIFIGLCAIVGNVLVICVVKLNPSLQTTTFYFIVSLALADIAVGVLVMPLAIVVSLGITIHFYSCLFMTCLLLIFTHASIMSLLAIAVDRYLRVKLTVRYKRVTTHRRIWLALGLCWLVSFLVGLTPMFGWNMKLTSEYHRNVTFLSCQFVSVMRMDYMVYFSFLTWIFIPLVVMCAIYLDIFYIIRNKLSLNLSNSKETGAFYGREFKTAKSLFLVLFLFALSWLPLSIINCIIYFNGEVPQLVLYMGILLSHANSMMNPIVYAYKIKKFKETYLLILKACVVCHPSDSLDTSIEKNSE

Adenosine receptor A1 [6] = target: T6, Adenosine receptor A1 (Mus musculus, UniProt Q60612); assay: Displacement of [3H] DPCPX from mouse adenosine A1 receptor expressed in HEK293 cells incubated for 60 mins by radioligand binding assay; format: cell-based
T6 sequence (Q60612 whole entry): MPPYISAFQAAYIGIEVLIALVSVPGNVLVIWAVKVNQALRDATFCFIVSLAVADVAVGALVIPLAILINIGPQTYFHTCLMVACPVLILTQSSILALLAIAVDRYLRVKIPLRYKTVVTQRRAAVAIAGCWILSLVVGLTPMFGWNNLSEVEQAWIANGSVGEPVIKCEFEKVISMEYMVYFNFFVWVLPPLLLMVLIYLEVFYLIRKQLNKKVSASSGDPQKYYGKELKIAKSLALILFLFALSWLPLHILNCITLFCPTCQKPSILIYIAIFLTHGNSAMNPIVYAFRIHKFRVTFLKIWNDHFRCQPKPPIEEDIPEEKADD

[7] = Volume of distribution in Sprague-Dawley rat brain at 1 mg/kg, iv measured after 8 hrs by LC-MS/MS analysis; format: ADME, organism-based
Adenosine receptor A2a [8] = target: Adenosine receptor A2a (Mus musculus, UniProt Q60613); assay: Displacement of [3H] ZM241385 from mouse adenosine A2A receptor expressed in HEK293 cells incubated for 60 mins by radioligand binding assay; format: cell-based
[9] = Clearance in Sprague-Dawley rat plasma at 1 mg/kg, iv measured after 8 hrs by LC-MS/MS analysis; format: ADME, organism-based
[10] = Lipophilicity, logP of compound; format: physicochemical; settings: octanol/water
[11] = Drug concentration in Sprague-Dawley rat plasma assessed as average concentration at 1 mg/kg, iv measured after 8 hrs by LC-MS/MS analysis; format: ADME, organism-based; settings: in vivo
[12] = Half life in Sprague-Dawley rat brain at 1 mg/kg, iv measured after 8 hrs by LC-MS/MS analysis; format: ADME, organism-based
[13] = C0 in Sprague-Dawley rat brain at 1 mg/kg, iv measured after 8 hrs by LC-MS/MS analysis; format: ADME, organism-based
Adenosine receptor A2b [14] = target: Adenosine receptor A2b (Mus musculus, UniProt Q60614); assay: Displacement of [3H] DPCPX from mouse adenosine A2B receptor expressed in HEK293 cells incubated for 60 mins by radioligand binding assay; format: cell-based
[15] = Fraction unbound in Sprague-Dawley rat plasma assessed as unbound fraction at 1 mg/kg, iv measured after 8 hrs by LC-MS/MS analysis; format: ADME, organism-based
[16] = Volume of distribution in Sprague-Dawley rat plasma at 1 mg/kg, iv measured after 8 hrs by LC-MS/MS analysis; format: ADME, organism-based
[17] = target: 5-hydroxytryptamine receptor 2A (Homo sapiens, UniProt P28223); assay: Binding affinity to human 5-HT2A receptor by radioligand binding assay
Adenosine receptor A2b [18] = target: Adenosine receptor A2b (Homo sapiens, UniProt P29275); assay: Displacement of [3H] DPCPX from human adenosine A2B receptor expressed in HEK293 cells incubated for 60 mins by radioligand binding assay; format: cell-based
Adenosine receptor A2a [19] = target: Adenosine receptor A2a (Rattus norvegicus, UniProt P30543); assay: Displacement of [3H] ZM241385 from rat adenosine A2A receptor expressed in HEK293 cells incubated for 60 mins by radioligand binding assay; format: cell-based
Adenosine receptor A3 [20] = target: T2, Adenosine receptor A3; format: cell-based, HEK293
Adenosine receptor A2b [21] = target: Adenosine receptor A2b (Rattus norvegicus, UniProt P29276); assay: Displacement of [3H] DPCPX from rat adenosine A2B receptor expressed in HEK293 cells incubated for 60 mins by radioligand binding assay; format: cell-based
[22] = target: 5-hydroxytryptamine receptor 2C (Homo sapiens, UniProt P28335); assay: Binding affinity to human 5-HT2C receptor by radioligand binding assay
Adenosine receptor A3 [23] = target: T1, Adenosine receptor A3; format: cell-based, HEK293
[24] = Half life in Sprague-Dawley rat plasma at 1 mg/kg, iv measured after 8 hrs by LC-MS/MS analysis; format: ADME, organism-based
[25] = Drug concentration in Sprague-Dawley rat brain concentration assessed as average concentration at 1 mg/kg, iv measured after 8 hrs by LC-MS/MS analysis; format: ADME, organism-based; settings: in vivo
[26] = target: Muscarinic acetylcholine receptor M5 (Homo sapiens, UniProt P08912); assay: Binding affinity to human M5 receptor by radioligand binding assay
Adenosine receptor A1 [27] = target: Adenosine receptor A1 (Rattus norvegicus, UniProt P25099); assay: Displacement of [3H] DPCPX from rat adenosine A1 receptor expressed in HEK293 cells incubated for 60 mins by radioligand binding assay; format: cell-based
[28] = Fraction unbound in Sprague-Dawley rat brain assessed as unbound fraction at 1 mg/kg, iv measured after 8 hrs by LC-MS/MS analysis; format: ADME, organism-based
Adenosine receptor A1 [29] = target: T7, Adenosine receptor A1 (Homo sapiens, UniProt P30542); assay: Displacement of [3H] DPCPX from human adenosine A1 receptor expressed in HEK293 cells incubated for 60 mins by radioligand binding assay; format: cell-based
T7 sequence (P30542 whole entry): T3 sequence (whole entry)

[30] = C0 in Sprague-Dawley rat plasma at 1 mg/kg, iv measured after 8 hrs by LC-MS/MS analysis; format: ADME, organism-based
Adenosine receptor A2a [31] = target: T4, Adenosine receptor A2a; assay: Displacement of [3H] ZM241385 from human adenosine A2A receptor expressed in HEK293 cells at 10 uM incubated for 60 mins by radioligand binding assay; format: cell-based
Adenosine receptor A3 [32] = target: T1, Adenosine receptor A3; assay: Binding affinity to mouse adenosine A3 receptor expressed in HEK293 cells measured by radioligand binding assay; format: cell-based
Adenosine receptor A3 [33] = target: T2, Adenosine receptor A3; assay: Binding affinity to rat adenosine A3 receptor expressed in HEK293 cells measured by radioligand binding assay; format: cell-based

T4 sequence (P29274 whole entry): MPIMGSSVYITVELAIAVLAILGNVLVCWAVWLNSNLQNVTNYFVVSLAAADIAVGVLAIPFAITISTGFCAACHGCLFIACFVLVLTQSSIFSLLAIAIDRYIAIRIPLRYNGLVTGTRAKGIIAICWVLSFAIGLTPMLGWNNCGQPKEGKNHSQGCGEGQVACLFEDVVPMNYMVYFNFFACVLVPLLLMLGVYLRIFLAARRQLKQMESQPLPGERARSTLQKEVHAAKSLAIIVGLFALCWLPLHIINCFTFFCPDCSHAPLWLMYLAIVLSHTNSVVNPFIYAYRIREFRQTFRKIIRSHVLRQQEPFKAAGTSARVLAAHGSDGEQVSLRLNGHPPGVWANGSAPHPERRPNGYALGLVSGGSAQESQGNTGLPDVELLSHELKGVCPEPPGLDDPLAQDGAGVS
Chain of Adenosine receptor A1 (Rattus norvegicus, UniProt P25099) (P25099 whole entry): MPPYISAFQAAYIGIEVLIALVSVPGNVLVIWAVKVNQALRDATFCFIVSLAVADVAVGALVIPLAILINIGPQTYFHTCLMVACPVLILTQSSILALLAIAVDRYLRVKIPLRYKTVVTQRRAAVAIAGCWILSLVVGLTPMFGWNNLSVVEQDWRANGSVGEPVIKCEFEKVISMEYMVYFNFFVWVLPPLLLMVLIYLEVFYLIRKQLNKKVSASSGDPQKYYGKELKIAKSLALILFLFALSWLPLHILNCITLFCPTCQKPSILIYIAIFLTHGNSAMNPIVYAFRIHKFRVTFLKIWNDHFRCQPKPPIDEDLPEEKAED
Chain of 5-hydroxytryptamine receptor 2C (P28335 whole entry): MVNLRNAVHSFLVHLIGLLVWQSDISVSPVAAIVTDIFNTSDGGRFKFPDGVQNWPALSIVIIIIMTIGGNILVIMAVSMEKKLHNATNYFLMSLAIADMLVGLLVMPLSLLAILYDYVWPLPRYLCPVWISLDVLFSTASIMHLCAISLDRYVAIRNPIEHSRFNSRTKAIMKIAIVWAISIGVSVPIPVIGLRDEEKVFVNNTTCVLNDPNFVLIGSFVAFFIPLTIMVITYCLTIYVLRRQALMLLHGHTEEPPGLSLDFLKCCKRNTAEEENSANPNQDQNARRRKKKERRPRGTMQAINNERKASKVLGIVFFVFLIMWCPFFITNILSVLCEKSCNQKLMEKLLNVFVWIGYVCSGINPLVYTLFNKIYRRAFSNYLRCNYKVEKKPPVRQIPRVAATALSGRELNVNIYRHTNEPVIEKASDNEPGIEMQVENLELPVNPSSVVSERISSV
Chain of 5-hydroxytryptamine receptor 2A (P28223 whole entry): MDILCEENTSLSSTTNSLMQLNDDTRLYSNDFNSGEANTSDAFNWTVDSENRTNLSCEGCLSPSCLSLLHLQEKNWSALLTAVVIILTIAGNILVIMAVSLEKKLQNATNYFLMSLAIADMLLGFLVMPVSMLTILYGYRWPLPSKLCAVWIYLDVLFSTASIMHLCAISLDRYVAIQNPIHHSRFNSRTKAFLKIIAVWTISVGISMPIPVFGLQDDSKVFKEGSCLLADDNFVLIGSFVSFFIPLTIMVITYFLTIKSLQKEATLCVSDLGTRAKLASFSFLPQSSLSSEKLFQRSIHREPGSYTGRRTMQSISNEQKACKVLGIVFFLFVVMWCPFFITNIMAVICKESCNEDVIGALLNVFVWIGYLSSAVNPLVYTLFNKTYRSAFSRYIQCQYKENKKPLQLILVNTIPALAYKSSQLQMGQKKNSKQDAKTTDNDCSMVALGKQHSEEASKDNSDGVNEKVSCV
Chain of Adenosine receptor A2a (Mus musculus, UniProt Q60613) (Q60613 whole entry): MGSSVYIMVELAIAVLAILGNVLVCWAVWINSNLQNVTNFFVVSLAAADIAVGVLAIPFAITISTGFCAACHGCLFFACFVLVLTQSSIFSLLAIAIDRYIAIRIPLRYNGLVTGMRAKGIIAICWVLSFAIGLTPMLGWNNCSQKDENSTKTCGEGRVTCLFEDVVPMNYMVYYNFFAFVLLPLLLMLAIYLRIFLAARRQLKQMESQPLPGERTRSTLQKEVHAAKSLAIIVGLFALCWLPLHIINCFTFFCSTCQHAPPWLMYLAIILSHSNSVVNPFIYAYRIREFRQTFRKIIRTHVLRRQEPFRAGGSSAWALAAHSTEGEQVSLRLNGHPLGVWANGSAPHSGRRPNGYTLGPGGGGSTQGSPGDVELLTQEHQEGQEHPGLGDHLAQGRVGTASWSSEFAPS
Chain of Adenosine receptor A2a (Rattus norvegicus, UniProt P30543) (P30543 whole entry): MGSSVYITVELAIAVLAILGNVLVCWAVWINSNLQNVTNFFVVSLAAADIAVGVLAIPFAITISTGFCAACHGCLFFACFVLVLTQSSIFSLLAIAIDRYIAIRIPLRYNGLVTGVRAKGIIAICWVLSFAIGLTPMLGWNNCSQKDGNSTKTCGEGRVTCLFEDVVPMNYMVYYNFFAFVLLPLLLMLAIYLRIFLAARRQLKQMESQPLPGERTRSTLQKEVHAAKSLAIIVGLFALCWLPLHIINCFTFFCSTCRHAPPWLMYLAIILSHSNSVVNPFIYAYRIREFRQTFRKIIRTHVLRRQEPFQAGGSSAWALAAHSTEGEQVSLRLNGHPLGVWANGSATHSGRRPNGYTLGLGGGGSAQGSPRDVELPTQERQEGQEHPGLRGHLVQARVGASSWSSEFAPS
Chain of Adenosine receptor A2b (Homo sapiens, UniProt P29275) (P29275 whole entry): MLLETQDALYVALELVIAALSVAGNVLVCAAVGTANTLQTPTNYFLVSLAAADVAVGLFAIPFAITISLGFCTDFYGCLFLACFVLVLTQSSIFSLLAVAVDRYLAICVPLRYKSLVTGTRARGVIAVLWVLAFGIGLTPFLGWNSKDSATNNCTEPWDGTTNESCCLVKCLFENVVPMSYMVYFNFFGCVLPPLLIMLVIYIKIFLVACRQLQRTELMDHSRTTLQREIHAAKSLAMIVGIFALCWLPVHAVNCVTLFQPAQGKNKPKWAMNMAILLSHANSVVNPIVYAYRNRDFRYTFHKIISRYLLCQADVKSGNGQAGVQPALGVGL
Chain of Muscarinic acetylcholine receptor M5 (P08912 whole entry): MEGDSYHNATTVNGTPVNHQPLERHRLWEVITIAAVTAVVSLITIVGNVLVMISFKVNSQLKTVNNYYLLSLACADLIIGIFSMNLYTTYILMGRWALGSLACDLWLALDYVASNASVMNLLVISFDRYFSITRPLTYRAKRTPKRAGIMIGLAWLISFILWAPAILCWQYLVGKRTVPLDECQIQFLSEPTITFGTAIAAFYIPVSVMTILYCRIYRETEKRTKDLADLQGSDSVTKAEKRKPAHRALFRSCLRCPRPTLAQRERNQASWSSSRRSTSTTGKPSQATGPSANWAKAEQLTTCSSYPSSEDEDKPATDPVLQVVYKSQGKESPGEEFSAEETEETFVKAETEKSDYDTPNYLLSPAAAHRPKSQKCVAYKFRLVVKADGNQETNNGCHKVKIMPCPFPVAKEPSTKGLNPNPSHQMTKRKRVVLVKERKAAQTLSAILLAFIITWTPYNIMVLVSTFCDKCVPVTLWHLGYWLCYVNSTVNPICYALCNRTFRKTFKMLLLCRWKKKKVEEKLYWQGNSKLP
Chain of Adenosine receptor A2b (Rattus norvegicus, UniProt P29276) (P29276 whole entry): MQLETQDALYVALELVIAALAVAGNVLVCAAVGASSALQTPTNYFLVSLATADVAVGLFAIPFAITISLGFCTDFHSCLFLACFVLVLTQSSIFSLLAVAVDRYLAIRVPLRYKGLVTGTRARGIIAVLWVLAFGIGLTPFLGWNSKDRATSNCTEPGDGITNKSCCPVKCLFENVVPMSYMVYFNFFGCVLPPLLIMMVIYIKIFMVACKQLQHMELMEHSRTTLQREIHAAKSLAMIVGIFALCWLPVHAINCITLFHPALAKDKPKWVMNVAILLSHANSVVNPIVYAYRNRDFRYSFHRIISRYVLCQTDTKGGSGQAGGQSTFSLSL
Chain of Adenosine receptor A2b (Mus musculus, UniProt Q60614) (Q60614 whole entry): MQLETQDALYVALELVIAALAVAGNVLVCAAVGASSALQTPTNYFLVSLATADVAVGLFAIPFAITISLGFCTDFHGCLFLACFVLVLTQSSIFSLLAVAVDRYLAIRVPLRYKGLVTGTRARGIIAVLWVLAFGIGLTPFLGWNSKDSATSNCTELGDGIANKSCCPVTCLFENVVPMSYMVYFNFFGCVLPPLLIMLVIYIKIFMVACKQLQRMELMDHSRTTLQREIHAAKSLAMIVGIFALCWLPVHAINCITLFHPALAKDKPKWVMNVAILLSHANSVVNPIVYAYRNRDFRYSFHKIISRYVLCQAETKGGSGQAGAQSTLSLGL

With `CCCn1cc2c(nc(NC(=O)Nc3ccc(OC)cc3)n3nc(-c4ccco4)nc23)n1` the Ki (Adenosine receptor A3 [1]) was over 10000 nM and the Ki (Adenosine receptor A3 [2]) was over 10000 nM.

In the case of `Cc1cc(C)cc(-c2nc(NC(=O)c3cncc(Br)c3)sc2-c2ccncc2)c1`, the inhibition [3] is reported as 38%, the Ki (Adenosine receptor A2a [4]) is reported as over 1000 nM and the Ki (Adenosine receptor A3 [5]) is reported as 26.6 nM.

For `Cc1cc(C)cc(-c2nc(NC(=O)c3cccnc3)sc2-c2ccncc2)c1`, the Ki (Adenosine receptor A1 [6]) was 411 nM, the Vd [7] was 1.9 L/kg and the Ki (Adenosine receptor A2a [8]) was 830 nM. The clearance [9] was 40 mL/min/kg, the logP [10] was 4.68 and the Cave [11] was 52 ng/mL. For the same molecule, the half-life [12] was 42 min, the C0 at 8 h [13] was 760 ng/mL and the Ki (Adenosine receptor A2b [14]) was 189 nM. For the same molecule, the fraction unbound at 8 h [15] was 0.03, the Vd [16] was 1.8 L/kg and the Ki [17] was 960 nM. For the same molecule, the Ki (Adenosine receptor A2b [18]) was 230 nM, the Ki (Adenosine receptor A2a [19]) was 1150 nM and the Ki (Adenosine receptor A3 [20]) was 8.53 nM. For the same molecule, the Ki (Adenosine receptor A2b [21]) was 163 nM, the Ki [22] was 790 nM and the Ki (Adenosine receptor A3 [23]) was 9.61 nM. The half-life [24] was 48 min, the Ki (Adenosine receptor A2a [4]) was 121 nM and the Cave [25] was 95 ng/mL. For the same molecule, the Ki [26] was 3700 nM, the Ki (Adenosine receptor A1 [27]) was 333 nM and the fraction unbound at 8 h [28] was 0.03. For the same molecule, the Ki (Adenosine receptor A1 [29]) was 162 nM and the C0 at 8 h [30] was 628 ng/mL.

With `CNC(=O)[C@@]12C[C@@H]1[C@@H](n1cnc3c(NCc4cccc(I)c4)nc(Cl)nc31)[C@H](O)[C@@H]2O` the Kd (Adenosine receptor A3 [2]) was 0.17 nM.

`Cc1cc(C#Cc2ccc(Cl)s2)cc(-c2nc(NC(=O)c3cccnc3)sc2-c2ccncc2)c1` showed an inhibition (Adenosine receptor A2a [31]) of -0.5%, an inhibition [3] of 21% and a Ki (Adenosine receptor A3 [5]) of 80.7 nM.

`[3H]c1cncc(C(=O)Nc2nc(-c3cc(C)cc(C)c3)c(-c3ccncc3)s2)c1` showed a Kd (Adenosine receptor A3 [32]) of 3.74 nM and a Kd (Adenosine receptor A3 [33]) of 2.8 nM.
